Data: patent publication US20250188078A1, “SMALL MOLECULE INHIBITORS OF THE CRL4 UBIQUITIN LIGASE” (Cornell University, priority 2022, published 2025)

Assays:
[1] = biological target: CUL4A-DDB1-BPB interaction (Homo sapiens (Human), UniProt Q16531); experiment: AlphaLISA in vitro binding assay, CUL4A and DDB1-BPB binding; conditions: inhibition of CUL4A and DDB1-BPB binding
Summary of the method: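 Compound disruption of CUL4A binding to DDB1-BPB measured by AlphaLISA/AlphaScreen bead proximity in 384-well format. IC50 from nonlinear log(inhibitor)-vs-response curve fit.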

[2] = tested on: CUL4A^high MDA-MB-468 breast cancer cells; experiment: Cell killing in CUL4-high MDA-MB-468 cells (CellTiter Glo); type: cell-based; conditions: Homo sapiens, 192 h; MDA-MB-468 cells, 8 days treatment; read-out: EC50 CUL4-High Cells (cell killing)
Method: EC50 refers to concentration of compound that induces 50% killing of CUL4A^high MDA-MB-468 cells (see Table 1, column 6). CUL4A^high MDA-MB-468 breast cancer cells were seeded in 96 well plates. After 24 hours, cells were treated with DMSO or compounds. Change fresh medium and compounds. After 8 days treatment, cell viability was examined by using CellTiter Glo kit (Promega #7570) following the manufacturer's guidelines (https://www.promega.com/-/media/files/resources/protocols/technicalbulletins/0/celltiter-glo-luminescent-cell-viability-assay protocol.pdf?rev=0d95c232094b41daa06d0c110d1d916f&sc_lang=en, hereby incorporated by reference in its entirety for all purposes). EC50 concentration was calculated by Prism 8 XY analysis nonlinear regression (curve fit-Log(inhibitor) vs response). Lower EC50 indicates high cell killing potential in CUL4^high MDA-MB-468 cells.
(§1) CUL4A^high MDA-MB-468, CUL4^low (T47D), and MCF7 breast cancer cells were seeded in 96 well plates separately. Cells were treated with DMSO, or from 0 to 20 μM compound respectively. Replace with fresh medium and compounds every 48 hours. After 8 days treatment, cell viability was examined by CellTiter Glo kit (Promega #7570). First, transfer the appropriate volume (10 ml for Cat. #G7570) of CellTiter-Glo® Buffer into the amber bottle containing CellTiter-Glo® Substrate to reconstitute the lyophilized enzyme/substrate mixture. This forms the CellTiter-Glo® Reagent. Second, add CellTiter-Glo® Reagent in an equal volume (100 μl per well for 96-well plates) to all wells. Mix contents for 2 minutes on an orbital shaker to induce cell lysis. Incubate at room temperature for 15 minutes to stabilize luminescent signal. Then record luminescence. EC50 concentration was calculated by Prism 8 XY analysis nonlinear regression (curve fit-Log(inhibitor) vs response).

[3] = tested on: CUL4A^low T47D breast cancer cells; experiment: Cell killing in CUL4-low T47D cells (CellTiter Glo); type: cell-based; conditions: Homo sapiens, 192 h; T47D cells, 8 days treatment; read-out: EC50 CUL4-Low Cells (cell killing)
Method: EC50 indicates compound concentration can cause 50% cell killing in CUL4° ^w T47D cells (see Table 1, column 7). CUL4A^low T47D breast cancer cells were seeded in 96 well plate. […] Change fresh medium and compounds every 48 hours. After 8 days treatment, cell viability was examined by using CellTiter Glo kit (Promega #7570) following the manufacturer's guidelines (https://www.promega.com/-/media/files/resources/protocols/technical-bulletins/0/celltiter-glo-luminescent-cell-viability-assay-protocol.pdf?rev=0d95c232094b41daa06d0c110d1d916f&sc_lang=en, hereby incorporated by reference in its entirety for all purposes). EC50 concentration was calculated by Prism 8 XY analysis nonlinear regression (curve fit-Log(inhibitor) vs response). EC50 indicates cell killing potential in CUL4 low T47D cell line and the EC50 difference between CUL4^high and CUL4^low cells indicates the small molecule cause specific cell killing.
as §1, with “Cells were treated with DMSO, or from 0 to 20 μM compound respectively.” left out

[4] = tested on: UV-induced CUL4-dependent DDB2 degradation in MEF-F-DDB2 cells; experiment: Cell-based assay for inhibition of UV-induced CUL4-dependent DDB2 degradation; parameters: key: (+) means that the normalized DDB2/α-tubulin ratio is higher in the compound treated sample than DMSO treated sample; (−) means that no change happens between compound treated sample with control sample; conditions: DDB2/α-tubulin by Western blot
Method: Cell-based assay for inhibition of UV-induced CUL4-dependent DDB2 degradation by small molecule CUL4 inhibitors (see Table 1, column 5). Briefly, MEF-F-DDB2 cells were seeded in 6-well plates. DMSO or indicated concentrations of compounds were added to MEF-F-DDB2 cells growing in serum-free medium. MEF-F-DDB2 cells were washed once with PBS and subsequently irradiated with a Philips TUV lamp (predominantly 254 nm) at a dose rate of 0.2 W/m^2. DMSO or compounds were added to MEF-F-DDB2 cells, and then cells were harvested. The cells were lysed, and equal amounts of proteins were resolved on SDS-PAGE gel and Flag-DDB2 levels were detected using anti-DDB2 (D4C4) rabbit antibody (Cell signaling, #5416S). α-tubulin (Proteintech, #66031-1-Ig) was used as an internal loading control. (+) means that the normalized DDB2/α-tubulin ratio is higher in the compound treated sample than DMSO treated sample. (−) means that no change happens between compound treated sample with control sample.

[5] = Dynamic light scattering (DLS) solubility assay; type: physicochemical; conditions: normalized intensity ratio of 25 μM compound vs DMSO, in PBS
Method: Dynamic light scattering (DLS) (see Table 1, column 3) is a tool for studying the diffusion behavior of macromolecules in solution. To profile compound solubility, DLS assay was developed for measuring aggregation of small molecule compounds. Compound stock solution was prepared in DMSO. Dilution series were made for each compound in DMSO to ensure a final 1× assay concentration range of 200 μM to 0.78 μM. For example, if the final DMSO concentration was 1%, compounds were prepared at 100× concentrations ranging from […] to 78 μM. Dilute compounds in PBS solution to final concentration. Place 60 μl/well in 96 well plates and 3 replicates for each sample. Data were collected using a DynaPro Plate Reader III (WYATT Technologies, Inc., USA). The instrument was adjusted to measure the optimal light scattering intensity according to the manufacturer's instructions. […] The ratio over 2 means (−) insoluble. The ratio below 2 means (+) soluble and around 2 means (+/−).

CUL4A-DDB1-BPB interaction, sequence (Q16531 403-706): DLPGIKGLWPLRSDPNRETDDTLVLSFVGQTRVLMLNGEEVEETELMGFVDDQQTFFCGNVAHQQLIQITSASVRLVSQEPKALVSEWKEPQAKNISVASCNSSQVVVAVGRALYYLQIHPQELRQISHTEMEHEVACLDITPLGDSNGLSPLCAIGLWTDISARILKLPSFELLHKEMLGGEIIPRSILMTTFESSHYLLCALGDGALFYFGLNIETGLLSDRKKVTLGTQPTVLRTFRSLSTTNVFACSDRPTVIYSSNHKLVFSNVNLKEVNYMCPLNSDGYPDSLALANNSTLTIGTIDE

Row | Compound | IC50 [1] [µM] | Solubility (DLS Assay) [5] | AlphaLisa IC50 [1] | EC50 [2] [µM] | EC50 [3] [µM] | Degradation Inhibition (inhibition of UV-induced DDB2 degradation) [4]
1 | CN(c1ccc(-c2nc(C(=O)O)cc3c2[nH]c2ccc(F)cc23)cc1)S(=O)(=O)c1ccc(Br)cc1 [PA2-4, 1-[4-[(4-bromophenyl)sulfonyl-methyl-amino]phenyl]-6-fluoro-9H-pyrido[3,4-b]indole-3-carboxylic acid] | 0.75 |  |  | 4.49 | > 100 | +
2 | CN(c1ccc(-c2nc(C(=O)O)cc3c2[nH]c2ccc(F)c(F)c23)cc1)S(=O)(=O)c1ccccc1 [PA1-1, 1-[4-[benzenesulfonyl(methyl)amino]phenyl]-5,6-difluoro-9H-pyrido[3,4-b]indole-3-carboxylic acid] | 0.17 | -(insoluble) |  | 15.2 | > 100 | −
3 | CN(c1ccc(-c2nc(C(=O)O)cc3c2[nH]c2ccc(F)cc23)cc1)S(=O)(=O)c1ccc(F)cc1 [PA2-3, 6-fluoro-1-[4-[(4-fluorophenyl)sulfonyl-methyl-amino]phenyl]-9H-pyrido[3,4-b]indole-3-carboxylic acid] | 0.48 | -(insoluble) |  | 13.3 | > 100 | −
4 | COc1ccc(S(=O)(=O)N(C)c2ccc(-c3nc(C(=O)O)cc4c3[nH]c3ccc(F)cc34)cc2)cc1 [PA2-2, 6-fluoro-1-[4-[(4-methoxyphenyl)-sulfonyl-methyl-amino]phenyl]-9H-pyrido[3,4-b]indole-3-carboxylic acid] | 0.89 | -(insoluble) |  | 8.45 | > 100 | −
5 | CN(c1ccc(-c2nc(C(=O)O)cc3c2[nH]c2cc(C#N)ccc23)cc1)S(=O)(=O)c1ccccc1 [PA1-9, 7-cyano-1-(4-(N-methylphenylsulfonamido)phenyl)-9H-pyrido[3,4-b]indole-3-carboxylic acid] | 0.085 | -(insoluble) |  | 7.87 |  | +
6 | CN(c1ccc(-c2nc(C(=O)O)cc3c2[nH]c2c(F)cccc23)cc1)S(=O)(=O)c1ccccc1 [PA1-4, 8-fluoro-1-(4-(N-methylphenylsulfonamido)phenyl)-9H-pyrido[3,4-b]indole-3-carboxylic acid] | 8.88 |  |  | 6.9 | 10.9 | −
7 | O=C(O)c1cc2c([nH]c3cc(F)ccc32)c(-c2ccc(OCc3ccccc3)cc2)n1 [PA1-11, 1-(4-benzyloxyphenyl)-7-fluoro-9H-pyrido[3,4-b]indole-3-carboxylic acid] | 5.84 | -(insoluble) |  | 9.9 |  | −

More lines, main results first:

Row | IC50 [1] [µM] | Solubility (DLS Assay) [5] | AlphaLisa IC50 [1] | Compound | EC50 [2] [µM] | EC50 [3] [µM] | Degradation Inhibition (inhibition of UV-induced DDB2 degradation) [4]
8 | 1.22 ± 0.35 |  |  | O=C(O)c1cc2c([nH]c3ccccc32)c(-c2ccc(S(=O)(=O)Cc3ccccc3)cc2)n1 [PA67, 1-(4-benzylsulfonylphenyl)-9H-pyrido[3,4-b]indole-3-carboxylic acid] | 53.8 | > 100 | 
9 | 2.09 ± 1.26 |  |  | COC(=O)c1ccc(-c2nc(C(=O)O)cc3c2[nH]c2ccccc23)cc1 [PA20, 1-(4-methoxycarbonylphenyl)-9H-pyrido[3,4-b]indole-3-carboxylic acid] | 91.3 | > 100 | +
10 |  |  | Neg | N#Cc1cc2c([nH]c3ccccc32)c(-c2ccc([N+](=O)[O-])cc2)n1 [PA42, 1-(4-nitrophenyl)-9H-pyrido[3,4-b]indole-3-carbonitrile] | 73.1 | > 100 | 
11 | 1.31 ± 0.24 |  |  | CS(=O)(=O)Oc1ccc(-c2nc(C(=O)O)cc3c2[nH]c2ccccc23)cc1 [PA53, 1-(4-methylsulfonyloxyphenyl)-9H-pyrido[3,4-b]indole-3-carboxylic acid] | 27.5 | 69.5 | 
12 |  | -(insoluble) | Neg | COC(=O)c1cc2c([nH]c3ccccc32)c(-c2ccc(S(C)(=O)=O)cc2)n1 [PA54] | > 100 | > 100 | +
13 | 11.1 ± 2.71 |  |  | CS(=O)(=O)NC(=O)c1cc2c([nH]c3ccccc32)c(-c2ccc(S(C)(=O)=O)cc2)n1 [PA55] | 30.7 | 53.8 | −
14 | 12.9 ± 7.44 | -(insoluble) |  | O=[N+]([O-])c1ccc(-c2nc(-c3nn[nH]n3)cc3c2[nH]c2ccccc23)cc1 [PA40, 1-(4-nitrophenyl)-3-(1H-tetrazol-5-yl)-9H-pyrido[3,4-b]indole] | 23.5 | 54.7 | 
15 |  | -(insoluble) | Neg | COC(=O)c1cc2c([nH]c3ccccc32)c(-c2ccc(S(=O)(=O)Cc3ccccc3)cc2)n1 [PA65, methyl 1-(4-benzylsulfonylphenyl)-9H-pyrido[3,4-b]indole-3-carboxylate] | 18.1 | 44.3 | 
16 | 1.39 ± 0.43 |  |  | CN(c1ccc(-c2nc(C(=O)O)cc3c2[nH]c2ccccc23)cc1)S(C)(=O)=O [PA75, 1-[4-[methyl(methylsulfonyl)amino]phenyl]-9H-pyrido[3,4-b]indole-3-carboxylic acid] | 38.7 | 64 | 
17 | 1.26 ± 0.45 |  |  | CS(=O)(=O)Nc1ccc(-c2nc(C(=O)O)cc3c2[nH]c2ccccc23)cc1 [PA48, 1-[4-(methanesulfonamido)phenyl]-9H-pyrido[3,4-b]indole-3-carboxylic acid] | 84.1 | > 100 | +
